Counter-ions that a name gives are not always drawn.
Legend:
Type in all cases: cell-based, mouse
[1] = system: Hedgehog Signaling Pathway; assay: Gli-Luc reporter gene cell assay in C3H10T1/2/Gli-Luc cells stimulated with Shh; settings: 30 nM Shh, luciferase activity (RLU), read-out: IC50 values of compounds that inhibit Hh pathway
Method in brief: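 IC50 from nonlinear fit of luciferase RLU versus log compound concentration. Stably transfected C3H10T1/2/Gli-Luc cells received a 7-point compound series alongside Shh (30 nM in the added medium) for 24 h at 37 °C in DMEM/10% FBS, then were lysed for luciferase readout.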

[2] = system: Hedgehog Signaling Pathway; assay: SHH-induced differentiation of C3H10T1/2 cells into osteoblastic cells, intracellular alkaline phosphatase activity; settings: 10 nM SHH-N, 5 days, alkaline phosphatase activity (OD405), read-out: IC50 values of compounds that inhibit Hh pathway
Method in brief: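 Hedgehog pathway inhibition was taken as loss of SHH-driven osteoblastic differentiation. Test compound (10 nM–10 μM) plus SHH-N (10 nM) was applied to C3H10T1/2 cells for 5 days, then lysate phosphatase turnover was measured as the 30-min OD405 change at 37 °C. IC50 was fitted from activity versus log dose.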

[3] = system: Hedgehog Signaling Pathway; assay: SAG-induced differentiation of C3H10T1/2 cells into osteoblastic cells, intracellular alkaline phosphatase activity; settings: 1 μM SAG, 5 days, alkaline phosphatase activity (OD405), read-out: IC50 values of compounds that inhibit Hh pathway
Method in brief: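 Mouse C3H10T1/2 cells were induced with SAG and exposed to compound (10 μM to 1 nM) for 5 days at 37 °C. Cells were lysed in 0.2% Triton, and alkaline phosphatase activity was read as OD405 over 30 min at 37 °C in pH 9.8 substrate buffer. IC50 came from a non-linear fit of background-subtracted OD405 against log concentration.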

[4] = Mus musculus, C3H 10T1/2, 120 h

SMILES	IC50 ([1]; Mus musculus, C3H 10T1/2, 24 h) [nM]	IC50 [2, 4] [nM]	IC50 [3, 4] [nM]	IC50 ([1]; 24 hours) [nM]	IC50 [2] [nM]	IC50 [3] [nM]
CCCc1cnc(-c2cc(NC(=O)c3ccc(N4C[C@@H](C)N(C)[C@@H](C)C4)cc3Cl)ccc2Cl)[nH]1 [Example 173]				15	60	165
Cc1cc(N2C[C@@H](C)N(C)[C@@H](C)C2)ccc1C(=O)Nc1ccc(Cl)c(-c2ncc(C3CC3)[nH]2)c1 [Example 177, N-(3-(5-cyclopropyl-1H-imidazol-2-yl)-4-chlorophenyl)-2-methyl-4-((3S,5R)-3,4,5-trimethylpiperazin-1-yl)benzamide]	0.67	1	23			
Cc1c(C(=O)Nc2ccc(Cl)c(-c3ncc(C4CC4)[nH]3)c2)ccc(N2C[C@@H](C)N(C)[C@@H](C)C2)c1F [Example 179, N-(3-(5-cyclopropyl-1H-imidazol-2-yl)-4-chlorophenyl)-2-methyl-3-fluoro-4-((3S,5R)-3,4,5-trimethylpiperazin-1-yl)benzamide]	0.43	0.39	21			
Cc1cc(N2C[C@@H](C)N(C)[C@@H](C)C2)ccc1C(=O)Nc1ccc(Cl)c(-c2ncc(C3CCCC3)[nH]2)c1 [Example 183, N-(3-(5-cyclopentyl-1H-imidazol-2-yl)-4-chlorophenyl)-2-methyl-4-((3S,5R)-3,4,5-trimethylpiperazin-1-yl)benzamide]	6.6	22	90			
C[C@@H]1CN(c2ccc(C(=O)Nc3ccc(Cl)c(-c4ncc(C5CCCCC5)[nH]4)c3)c(Cl)c2)C[C@H](C)N1C [Example 184, N-(3-(5-cyclohexyl-1H-imidazol-2-yl)-4-chlorophenyl)-2-chloro-4-((3S,5R)-3,4,5-trimethylpiperazin-1-yl)benzamide]	10	28	184			
Cc1cc(N2C[C@@H](C)N(C)[C@@H](C)C2)ccc1C(=O)Nc1ccc(Cl)c(-c2ncc(C3CCCCC3)[nH]2)c1 [Example 185, N-(3-(5-cyclohexyl-1H-imidazol-2-yl)-4-chlorophenyl)-2-methyl-4-((3S,5R)-3,4,5-trimethylpiperazin-1-yl)benzamide]	17	6.1	169			
C[C@@H]1CN(c2ccc(C(=O)Nc3ccc(Cl)c(-c4nc5cccnc5[nH]4)c3)c(Cl)c2)C[C@H](C)N1C [Example 195, N-(3-(3H-imidazo[4,5-b]pyridin-2-yl)-4-chlorophenyl)-2-chloro-4-((3S,5R)-3,4,5-trimethylpiperazin-1-yl)benzamide]	8.9	8.1	258			
C[C@@H]1CN(c2ccc(C(=O)Nc3ccc(Cl)c(-c4nc5ccncc5[nH]4)c3)c(Cl)c2)C[C@H](C)N1C [Example 196, N-(3-(3H-imidazo[4,5-c]pyridin-2-yl)-4-chlorophenyl)-2-chloro-4-((3S,5R)-3,4,5-trimethylpiperazin-1-yl)benzamide]	5.7	54	157			
Cc1cc(N2C[C@@H](C)N(C)[C@@H](C)C2)ccc1C(=O)Nc1ccc(Cl)c(-c2nc3ccncc3[nH]2)c1 [Example 197, N-(3-(3H-imidazo[4,5-c]pyridin-2-yl)-4-chlorophenyl)-2-methyl-4-((3S,5R)-3,4,5-trimethylpiperazin-1-yl)benzamide]	9.5	115	306			
Cc1cc(N2C[C@@H](C)N(C)[C@@H](C)C2)ccc1C(=O)Nc1ccc(Cl)c(-c2nc3cscc3[nH]2)c1 [Example 198]				0.29	0.3	26
C[C@@H]1CN(c2ccc(C(=O)Nc3ccc(Cl)c(-c4nc5cscc5[nH]4)c3)c(Cl)c2)C[C@H](C)N1C [Example 199, N-(3-(1H-thieno[3,4-d]imidazol-2-yl)-4-chlorophenyl)-2-chloro-4-((3S,5R)-3,4,5-trimethylpiperazin-1-yl)benzamide]	0.27	0.19	11			
C[C@@H]1CN(c2ccc(C(=O)Nc3ccc(Cl)c(-c4cnc5ccccc5n4)c3)c(Cl)c2)C[C@H](C)N1C [Example 204, N-(3-(quinoxalin-2-yl)-4-chlorophenyl)-2-chloro-4-((3S,5R)-3,4,5-trimethylpiperazin-1-yl)benzamide]	9.6	49	201			
C[C@@H]1CN(c2ccc(C(=O)Nc3ccc(Cl)c(-c4cn5ccsc5n4)c3)c(Cl)c2)C[C@H](C)N1C [Example 205, N-(3-(imidazo[2,1-b]thiazol-6-yl)-4-chlorophenyl)-2-chloro-4-((3S,5R)-3,4,5-trimethylpiperazin-1-yl)benzamide]	29	94	250			
Cc1cc(N2C[C@@H](C)N(C)[C@@H](C)C2)ccc1C(=O)Nc1ccc(Cl)c(-c2nc3ccccc3o2)c1 [Example 206, N-(3-(benzo[d]oxazol-2-yl)-4-chlorophenyl)-2-methyl-4-((3S,5R)-3,4,5-trimethylpiperazin-1-yl)benzamide]	27	46	244			
C[C@@H]1CN(c2ccc(C(=O)Nc3ccc(Cl)c(-c4nc5ccccc5s4)c3)c(Cl)c2)C[C@H](C)N1C [Example 207, N-(3-(benzo[d]thiazol-2-yl)-4-chlorophenyl)-2-chloro-4-((3S,5R)-3,4,5-trimethylpiperazin-1-yl)benzamide]	8.5	31	158			

Further lines, results first:

IC50 ([1]; Mus musculus, C3H 10T1/2, 24 h) [nM]	IC50 [2, 4] [nM]	IC50 [3, 4] [nM]	IC50 ([1]; 24 hours) [nM]	IC50 [2] [nM]	IC50 [3] [nM]	SMILES
17	45	127				CCCc1cnc(-c2cc(NC(=O)c3ccc(N4C[C@@H](C)N(C)[C@@H](C)C4)cc3C)ccc2Cl)[nH]1 [Example 172, N-(3-(5-propyl-1H-imidazol-2-yl)-4-chlorophenyl)-2-methyl-4-((3S,5R)-3,4,5-trimethylpiperazin-1-yl)benzamide]
5.7	11	91				Cc1cc(N2C[C@@H](C)N(C)[C@@H](C)C2)ccc1C(=O)Nc1ccc(Cl)c(-c2ncc(C(C)(C)C)[nH]2)c1 [Example 174, N-(3-(5-tert-butyl-1H-imidazol-2-yl)-4-chlorophenyl)-2-methyl-4-((3S,5R)-3,4,5-trimethylpiperazin-1-yl)benzamide]
7.6	6.1	176				C[C@@H]1CN(c2ccc(C(=O)Nc3ccc(Cl)c(-c4ncc(C(C)(C)C)[nH]4)c3)c(Cl)c2)C[C@H](C)N1C [Example 175, N-(3-(5-tert-butyl-1H-imidazol-2-yl)-4-chlorophenyl)-2-chloro-4-((3S,5R)-3,4,5-trimethylpiperazin-1-yl)benzamide]
0.97	3.9	7.2				C[C@@H]1CN(c2ccc(C(=O)Nc3ccc(Cl)c(-c4ncc(C5CC5)[nH]4)c3)c(Cl)c2)C[C@H](C)N1C [Example 176, N-(3-(5-cyclopropyl-1H-imidazol-2-yl)-4-chlorophenyl)-2-chloro-4-((3S,5R)-3,4,5-trimethylpiperazin-1-yl)benzamide]
1	0.3	26				C[C@@H]1CN(c2ccc(C(=O)Nc3ccc(Cl)c(-c4ncc(C5CC5)[nH]4)c3)c(C(F)(F)F)c2)C[C@H](C)N1C [Example 178, N-(3-(5-cyclopropyl-1H-imidazol-2-yl)-4-chlorophenyl)-2-(trifluoro-methyl)-4-((3S,5R)-3,4,5-trimethylpiperazin-1-yl)benzamide]
2.4	9.9	47				C[C@@H]1CN(c2ccc(C(=O)Nc3ccc(Cl)c(-c4ncc(C5CCC5)[nH]4)c3)c(Cl)c2)C[C@H](C)N1C [Example 180, N-(3-(5-cyclobutyl-1H-imidazol-2-yl)-4-chlorophenyl)-2-chloro-4-((3S,5R)-3,4,5-trimethylpiperazin-1-yl)benzamide]
3.2	19	70				Cc1cc(N2C[C@@H](C)N(C)[C@@H](C)C2)ccc1C(=O)Nc1ccc(Cl)c(-c2ncc(C3CCC3)[nH]2)c1 [Example 181, N-(3-(5-cyclobutyl-1H-imidazol-2-yl)-4-chlorophenyl)-2-methyl-4-((3S,5R)-3,4,5-trimethylpiperazin-1-yl)benzamide]
4.5	9	100				C[C@@H]1CN(c2ccc(C(=O)Nc3ccc(Cl)c(-c4ncc(C5CCCC5)[nH]4)c3)c(Cl)c2)C[C@H](C)N1C [Example 182, N-(3-(5-cyclopentyl-1H-imidazol-2-yl)-4-chlorophenyl)-2-chloro-4-((3S,5R)-3,4,5-trimethylpiperazin-1-yl)benzamide]
0.82	5.2	30				CC(C)c1cnc(-c2cc(NC(=O)c3ccc(N4C[C@@H](C)N(C)[C@@H](C)C4)cc3Cl)ccc2Cl)[nH]1 [Example 189, N-(3-(5-isopropyl-1H-imidazol-2-yl)-4-chlorophenyl)-2-chloro-4-((3S,5R)-3,4,5-trimethylpiperazin-1-yl)benzamide Dihydrochloride]

Reference: patent publication US10676468B2, “N-(3-heteroarylaryl)-4-arylarylcarboxamides and analogs as hedgehog pathway inhibitors and use thereof” (IMPACT Therapeutics, Inc., priority 2012, dated 2020)
